The values below come from patent US8889375B2, “Hypoglycemic effect enhancer” (Biofermin Pharmaceutical Co., Ltd., priority 2009, dated 2014).

For assay [1], the system named is KK-A^y mice. Nature of the assay: Fasting blood glucose level after 2-week feeding of the test diet (Example 2). Format: in vivo, mouse. Particulars: 2-week feeding of test diet (10% BBG9-1 dried cells and/or 0.0003% voglibose in CE-2), fasted overnight, FIG. 1. The source says:
(§1) As the voglibose, BASEN (registered trade name) tablets 0.2 (made by Takeda Pharmaceutical Company Ltd.) were crushed and used. Female KK-A^y mice (strain name KK-A^y/TaJcl) at 8 weeks old were purchased (from CLEA Japan, Inc.) and preliminarily reared in separate cages for 2 weeks. A KK-A^y mouse is a diabetic model mouse. In the preliminary rearing, free access to a commercial powder diet (trade name: CE-2, made by CLEA Japan, Inc.) and tap water was provided. On the first day of the experiment, the oral glucose tolerance test (OGTT) was conducted. That is, to the mice kept fasted from the previous day, a glucose solution ((2 g in 5 mL)/kg) was orally administered. […] Accu-Check Aviva, made by Roche Diagnostics). The area under the blood concentration-time curve (AUC) was calculated, and based on the AUC, the mice were divided into the following 4 groups […] mice/group). The grouped mice were given free access to the test diet. Group A: a group fed with CE-2 containing 10% dextrin. […] Group C: a group fed with CE-2 containing 10% dextrin and 0.0003% voglibose. […] Each group was fed with the test diet for 2 weeks as above, fasted overnight, and then measured for fasting glucose level with use of Accu-Check Aviva. […] The significant difference of each group from Group A was evaluated using Durmett's test, and the significant difference between 2 groups was evaluated using t-test.

Assay [2] has as its system KK-A^y mice. In words: Oral glucose tolerance test (OGTT) after 6-week feeding of the test diet (Example 2). Format: in vivo, mouse.
Description: as §1

For the next assay, the system named is GK rats. The conditions noted are these: 9-week dietary administration, 0.005%: 4.1 mg/kg·day; cited from earlier work.

On to `OCC(CO)N[C@H]1C[C@](O)(CO)[C@@H](O)[C@H](O)[C@H]1O` [voglibose, 1L(1S)-(1(OH),2,4,5/1,3)-5-[[2-hydroxy-1-(hydroxymethyl)-ethyl]amino]-1-C-(hydroxymethyl)-1,2,3,4-cyclohexane tetrol], for which, in the assay on KK-A^y mice [1], the “fasting blood glucose level” value is “neither BBG9-1 alone nor voglibose alone decreased the fasting blood glucose level”. Further, the glucose tolerance entry is “did not improve the glucose tolerance” in the assay on KK-A^y mice [2] (6-week dietary administration, voglibose 0.0003%: 0.6 mg/kg·day) and “improved the glucose tolerance” in the assay on GK rats. For the same compound, the “blood glucose level in the OGTT after glucose loading” value in the assay with KK-A^y mice [2] (6-week feeding (10% BBG9-1 dried cells and/or 0.0003% voglibose in CE-2), glucose 2 g/kg oral, FIG. 2) is “neither BBG9-1 alone nor voglibose alone inhibited the increase in the blood glucose level”.
